In patent US9499495B2, “Quinazolines and azaquinazolines as dual inhibitors of RAS/RAF/MEK/ERK and PI3K/AKT/PTEN/mTOR pathways” (Asana Biosciences, LLC, priority 2013, dated 2016) one finds IC50 data, which are given here for three molecules.

Test [1] has as its target T1, mTOR kinase (Homo sapiens, UniProt P42345).
T1 construct: purchased Millipore, US
Briefly: mTOR kinase TR-FRET assay. Format: biochemical. Put shortly: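 TR-FRET with ULight-p70 S6K (Thr 389) peptide (50 nM) and 20 μM ATP in 50 mM HEPES pH 7.5, 1 mM EGTA, 3 mM MnCl2; compound pre-incubated with enzyme before substrate addition, reaction at rt, EDTA-stopped. Eu anti-phospho antibody read 665/615 nm; IC50 from sigmoidal dose-response fit.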
(In TR-FRET formats the signal depends on donor and acceptor labels being close together.)

Test [2] relates to A375 cells. Kind of test: XTT assay for cell viability, A375 cells. Format: cell-based. The note with it: Homo sapiens, A-375, 72 h. A digest of the protocol: (§1)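 RKO and A375 cells seeded at 1000-2000/well overnight, then exposed to compound for 72 h at 37° C., 5% CO2. XTT (1 mg/ml)/PMS (25 μM) added for 2-3 h; absorbance at 450 nm. Growth relative to DMSO control (100%); GI50 from sigmoidal dose-response fit.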

Test [3] deals with pERK in RKO cells. Briefly: In Cell Western (ICW) assay, pERK in RKO cells. It is filed as cell-based. The note with it: Homo sapiens, 3 h treatment. A digest of the protocol:
(§2)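 RKO or A375 cells were exposed to compounds for 3 h at 37 °C, then fixed and stained in-cell with antibodies to pERK1/2 (T202/Y204), pS6RP or pAKT T308, followed by a Eu-labelled secondary. Time-resolved fluorescence (340/615 nm) was normalized to Hoechst, and IC50 values were fitted sigmoidally against DMSO as 0% inhibition.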

Test [4] relates to pS6RP in RKO cells. Briefly: In Cell Western (ICW) assay, pS6RP in RKO cells. Format: cell-based. The note with it: Homo sapiens, 3 h treatment. A digest of the protocol: as §2
Test [5] deals with pAKT (T308) in RKO cells. Kind of test: In Cell Western (ICW) assay, pAKT-T308 in RKO cells. It is filed as cell-based. The note with it: Homo sapiens, 3 h treatment. As to the method:
Cell lines A375, A2058 and RKO obtained from the ATCC as provided above, were grown, and after attaining ˜80% confluency were trypsinized, centrifuged and resuspended in fresh media. The cells were seeded at the specified density (20,000 to 50,000) in a 96-well format black-well clear bottom plate (Corning) and incubated overnight at 37° C. in a 5% CO2 incubator. The next day, compound dilutions of test compounds were prepared in 100% DMSO followed by dilutions in respective media. Treatment of test compounds was performed for 3 h at 37° C. in 5% CO2 incubator. Following 3 h drug treatment, the conditional media was discarded and the cells were washed once with cPBS (PBS containing 0.1% magnesium chloride hexahydrate and 0.1% anhydrous calcium chloride) and fixed with 4% paraformaldehyde in cPBS for 1 h at rt. After fixing, the cells were given three washes using cPBST (cPBS containing 0.1% Triton™ X-100 reagent) and then blocked using blocking solution (5% skimmed milk powder or 5% BSA prepared in cPBST) for 2 h at rt with shaking at 300 rpm. The cells were again washed thrice with cPBST and incubated with primary antibody phospho-p44/42 MAPK(Erk1/2)(Thr202/204) antibody (Cell Signaling, Catalog # 9101L), phospho S6 ribosomal protein (Cell Signaling, Catalog #4858L), phospho AKT (Thr 308) (Cell Signaling, Catalog #9275) or phospho AKT (Ser 473) (Cell Signaling, Catalog #4060L) in specified dilutions (1:500-1:2500), prepared in respective blocking solutions, in a racker overnight at 4° C. The next day, the cells were washed with 1× Delfia® wash buffer (4×1 wash) and incubated with secondary antibody (Delfia®-Eu-N1 labeled anti-rabbit antibody; PerkinElmer, Catalog #AD0105; dilutions: 1:2000 to 1:6000 in Delfia® assay buffer (PerkinElmer, Catalog #1244-111)) for 2 h at rt in the dark at 300 rpm. The cells were then given four washes with 1× Delfia® wash buffer and incubated with Wallac Delfia® Enhancement solution (100 μL; PerkinElmer, Catalog #1244-105) for 20 min at rt in the dark at 300 rpm. The fluorescence emission was then read at 615 nm with an excitation wavelength of 340 nm using a Victor V5 Fluorometer (Perkin Elmer, US). The cells were then washed once with 1×cPBS and incubated with 100 μL of 0.5 mg/mL of Hoechst 33258 dye prepared in cPBS and read at 460 nm with 355 nm excitation, thereby evaluating the correction factor.
The % inhibition for the test compounds of formula (I) (new chemical entities (NCEs)) was calculated keeping DMSO control as 0% and the IC50 values were determined using sigmoidal dose response curve fit in GraphPad Prism® v5 software.

The test system of test [6] is RKO cells. Briefly: XTT assay for cell viability, RKO cells. It is filed as cell-based. The note with it: Homo sapiens, 72 h. Put shortly:
as §1

Structures are written as SMILES.

T1 sequence (P42345 1362-2549 limits assumed): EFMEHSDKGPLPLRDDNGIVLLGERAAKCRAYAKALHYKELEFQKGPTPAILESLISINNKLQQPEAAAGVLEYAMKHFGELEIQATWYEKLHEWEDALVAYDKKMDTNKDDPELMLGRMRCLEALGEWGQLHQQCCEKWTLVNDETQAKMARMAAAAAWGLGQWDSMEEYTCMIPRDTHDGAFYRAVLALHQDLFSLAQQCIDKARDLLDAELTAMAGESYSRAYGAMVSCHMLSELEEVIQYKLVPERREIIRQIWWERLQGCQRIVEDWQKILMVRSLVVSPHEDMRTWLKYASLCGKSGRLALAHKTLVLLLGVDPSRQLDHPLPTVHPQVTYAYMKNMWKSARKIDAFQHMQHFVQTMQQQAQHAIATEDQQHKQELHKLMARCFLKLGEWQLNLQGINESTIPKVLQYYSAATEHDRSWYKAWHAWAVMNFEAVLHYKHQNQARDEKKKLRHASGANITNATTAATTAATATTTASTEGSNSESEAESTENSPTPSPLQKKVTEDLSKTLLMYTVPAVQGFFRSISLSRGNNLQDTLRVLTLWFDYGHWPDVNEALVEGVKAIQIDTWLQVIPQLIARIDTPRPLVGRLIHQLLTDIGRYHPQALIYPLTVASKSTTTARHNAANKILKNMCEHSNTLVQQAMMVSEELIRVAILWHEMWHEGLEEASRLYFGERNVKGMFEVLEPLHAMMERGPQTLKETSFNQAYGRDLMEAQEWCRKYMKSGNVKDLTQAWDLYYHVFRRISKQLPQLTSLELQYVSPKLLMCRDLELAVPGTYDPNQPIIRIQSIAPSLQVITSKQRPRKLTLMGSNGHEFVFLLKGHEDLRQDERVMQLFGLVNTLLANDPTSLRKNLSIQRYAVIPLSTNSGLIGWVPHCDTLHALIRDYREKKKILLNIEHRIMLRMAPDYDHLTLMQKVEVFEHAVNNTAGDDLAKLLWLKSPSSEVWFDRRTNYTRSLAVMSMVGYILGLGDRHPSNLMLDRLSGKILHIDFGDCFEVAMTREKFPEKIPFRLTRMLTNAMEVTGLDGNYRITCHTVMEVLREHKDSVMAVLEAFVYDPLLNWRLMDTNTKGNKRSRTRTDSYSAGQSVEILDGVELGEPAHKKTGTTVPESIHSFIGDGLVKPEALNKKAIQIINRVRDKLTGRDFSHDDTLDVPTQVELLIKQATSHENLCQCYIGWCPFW

As for `Nc1cc(C(F)(F)F)c(-c2nc(N3CCOCC3)c3nc(-c4cccc(NS(=O)(=O)CCCF)c4F)ccc3n2)cn1` [Example 94, N-(3-(2-(6-amino-4-(trifluoromethyl)pyridin-3-yl)-4-morpholinopyrido[3,2-d]pyrimidin-6-yl)-2-fluorophenyl)-3-fluoropropane-1-sulfonamide], the IC50 in test [1] lay in the range of 1 to 100 nM; in test [2], 100 to 1000 nM; in test [3] it was 1 to 100 nM; in test [4] it was 100 to 1000 nM; in test [5] it was 100 to 1000 nM; in test [6] it was 100 to 1000 nM.
Consider `Nc1ccc(-c2nc(N3CCOCC3)c3nc(-c4cccc(NS(=O)(=O)CCCF)c4F)ccc3n2)cn1` [Example 88, N-(3-(2-(6-aminopyridin-3-yl)-4-morpholinopyrido[3,2-d]pyrimidin-6-yl)-2-fluorophenyl)-3-fluoropropane-1-sulfonamide], for which the IC50 in test [1] was 1 to 100 nM; in test [2], 100 to 1000 nM; in test [3], 100 to 1000 nM; in test [4], 100 to 1000 nM; in test [5], 100 to 1000 nM; in test [6], 100 to 1000 nM.
On to `Cc1cc(N)ncc1-c1nc(N2CCOCC2)c2nc(-c3cccc(NS(=O)(=O)CCCF)c3F)ccc2n1` [Example 101, N-(3-(2-(6-amino-4-methylpyrtdin-3-yl)-4-morpholinopyrldo[3,2-d]pyrimidin-6-yl)-2-fluorophenyl)-3-fluoropropane-1-sulfonamide], for which the IC50 in test [1] was 100 to 1000 nM; in test [2] it was 100 to 1000 nM; in test [3] it was 100 to 1000 nM; in test [4], 1 to 100 nM; in test [5] it was 100 to 1000 nM; in test [6], 100 to 1000 nM.

What is called IC50 is the midpoint of a concentration-inhibition curve. Read a low IC50 as greater potency in that assay.
